The source of these data is patent US7588756B1, “Treatment of cardiac power failure” (priority 1999, dated 2009).

The conditions of assay [1]: clinical studies; cited from earlier work.
Assay [2] has as its system saponin-semipermeabilized skeletal muscle fibres of the rat. As to the kind of experiment: Isometric force of saponin-semipermeabilized (skinned) skeletal muscle fibres, indirect measure of Ca2+ release from the SR. The conditions noted are these: for Ca2+ sensitivity of the contractile apparatus / increase of maximum force development compared with the control: slow skeletal musculature (M. soleus); for Ca2+ sensitivity of the contractile apparatus: 5-10 μM; for increase of maximum force development compared with the control: equimolar concentration 5-10 μM. The procedure:
The aim of this test procedure was therefore to examine what functional significance these sequences—in the form of synthetic peptides—have compared with the whole protein for the regulation of the Ca^2+ release from the SR. The Ca^2+ release was measured indirectly on saponin-semipermeabilized skeletal muscle fibres of the rat over an isometric force gradient. The measurement of the isometric force before and after addition of S100A1 peptide/protein served as a control.

The test system of the next assay is protein kinase C. Conditions: cited from earlier work.
In assay [3] the test system is microtubuli and intermediate filaments. The conditions noted are these: biochemical reconstitutive assays; cited from earlier work.
Assay [4] has as its system neonatal rat cardiomyocytes. As to the kind of experiment: Intracellular Ca2+ transients in cultivated neonatal rat cardiomyocytes after co-cultivation with recombinant S100A1. In kind it is cell-based. Conditions: S100A1 1 μM to 10 μM at two-day intervals, 7 days. The procedure: Neonatal rat hearts were removed from 3-day-old rats, ventricles separated from the atria and stored coarse-ground on ice in ADS buffer (6.8 g NaCl, 4.76 g HEPES, 0.12 g NaH2PO4, 1 g glucose, 0.4 g KCl, 0.1 g MgSO4 and 1000 ml H2O). In a bioreactor (Wheaton® container), the cells were then separated from the tissue assembly by means of collagenase digestion (108 U/mg/ml collagenase, Worthington, USA), and the released cells separated over a density gradient (Percoll, Pharmacia®) by centrifugation. The cardiomyocyte fraction was resuspended in cell culture medium (DMEM+10% newborn calf serum) and plated in a density of approx. 100,000 cardiomyocytes per well on 24-well cell culture plates. After 24 hours culture at 37° C. and 5% CO2, recombinant S100A1 was added to the cell culture medium at two-day intervals in concentrations of 1 μM to 10 μM. […] The intracellular Ca^2+ transients were then detected and quantified by means of inverse fluorescence microscopy (Olympus OSP 3®) under both rest conditions and electrical field stimulation (PHYWE®-bioelectrical measurement unit; frequencies of 30-300 bpm). […] The changes in the Ca^2+ concentration per time unit were measured as a quotient from the time until the signal maximum and the signal amplitude (+dc/dt) were reached or as a quotient of the time until the half amplitude and the signal amplitude (−dc/dt) were reached. […]

Take `COc1ccc(-c2nc3ccc(C4=NNC(=O)CC4C)cc3[nH]2)cc1` (stereo not shown) [pimobendan]: the “improvement of the heart function compared with placebo” value in assay [1] is “no significant improvement of the heart function”.

On to “combination of the three peptides: Combination of the N-terminal, hinge region and C-terminal synthetic S100A1 peptides (peptide 1 GSELETAMETLINVF; peptide 2 LSGFLDAQKDVDA; peptide 3 YVVLVAALTVA)”, for which, in assay [2], the “Ca2+ sensitivity of the contractile apparatus” value is reported as “unchanged” and the “increase of maximum force development compared with the control” value was 49%±6%.

Consider “combination of “C-terminal” peptide and the “hinge region”: Combination of the C-terminal and hinge region synthetic S100A1 peptides (peptide 1 LSGFLDAQKDVDA; peptide 2 YVVLVAALTVA)”, for which, in assay [2] (before versus after addition of peptide), the “increase of isometric force development” value is reported as 15%±4%.

As for “recombinant S100A1: Human recombinant Ca2+-binding protein S100A1 (SEQ ID NO: 2) prepared in genetically modified E. coli”, the “effect on protein kinase C” value in the assay on protein kinase C was “inhibition”. Also, in assay [2], the “Ca2+ sensitivity of the contractile apparatus” value is “unchanged” and the “increase of maximum force development compared with the control” value is reported as 52%±7%. The “polymerization of microtubuli and of intermediate filaments” value in assay [3] is “inhibition”. The “rise in the Ca2+ concentration per time unit in the systole (+dc/dt), increase in comparison with the control cell population” value in assay [4] (p<0.0002) is on record as 3 times. The “drop in the Ca2+ concentration per time unit in the diastole (-dc/dt), acceleration in comparison with the control cell population” value in assay [4] (p<0.0003) was found to be 2.2 times.
